Results from PubChem BioAssay (NCI).
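At the GI50, growth is halved. At the TGI there is no net growth.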

Key:
Assay in all cases: NCI tumour cell line growth inhibition, 384-well format
[1] = system: M14 melanoma
[2] = system: KM12 colon
[3] = system: HL-60(TB) leukemia
[4] = system: U251 glioblastoma
[5] = system: MDA-MB-468 breast
[6] = system: CCRF-CEM leukemia
[7] = system: SNB-75 CNS
[8] = system: DU-145 prostate
[9] = system: NCI-H226 lung
[10] = system: PC-3 prostate
[11] = system: SF-539 CNS
[12] = system: SNB-19 CNS
[13] = system: EKVX NSCLC
[14] = system: 786-0 renal
[15] = system: NCI-H322M lung
[16] = system: HS 578T breast
[17] = system: HOP-62 NSCLC
[18] = system: UACC-257 melanoma
[19] = system: COLO 205 colon
[20] = system: ACHN renal
[21] = system: NCI-H522 lung
[22] = system: NCI-H23 lung
[23] = system: MOLT-4 leukemia
[24] = system: RXF 393 renal
[25] = system: HCT-116 colon
[26] = system: A498 renal
[27] = system: HCC-2998 colon
[28] = system: SK-OV-3 ovarian
[29] = system: OVCAR-3 ovarian
[30] = system: SF-295 CNS
[31] = system: A549 NSCLC
[32] = system: SN12C renal
[33] = system: UACC-62 melanoma
[34] = system: SW-620 colon
[35] = system: K-562 leukemia
[36] = system: CAKI-1 renal
[37] = system: SF-268 CNS
[38] = system: NCI/ADR-RES ovarian
[39] = system: OVCAR-4 ovarian
[40] = system: HT29 colon
[41] = system: LOX IMVI melanoma
[42] = system: HCT-15 colon
[43] = system: SK-MEL-5 melanoma
[44] = system: HOP-92 NSCLC
[45] = system: OVCAR-8 ovarian
[46] = system: TK-10 renal
[47] = system: MDA-MB-435 melanoma
[48] = system: RPMI-8226 leukemia
[49] = system: SK-MEL-2 melanoma
[50] = system: MCF7 breast
[51] = system: NCI-H460 NSCLC
[52] = system: BT-549 breast
[53] = system: SK-MEL-28 melanoma
[54] = system: MALME-3M melanoma
[55] = system: IGROV1 ovarian

C=C(c1ccc(N(C)C)cc1)c1ccc(N(C)C)cc1
GI50 [1]: 1.39 µM
TGI [1]: 3.16 µM
GI50 [2]: 1.94 µM
TGI [2]: 55.4 µM
GI50 [3]: 0.382 µM
TGI [3]: 1.87 µM
GI50 [4]: 3.48 µM
TGI [4]: 14.4 µM
GI50 [5]: 0.142 µM
TGI [5]: 0.822 µM
GI50 [6]: 1.35 µM
TGI [6]: 2.68 µM
GI50 [7]: 1.25 µM
TGI [7]: 5.15 µM
GI50 [8]: 2.66 µM
TGI [8]: 8.38 µM
GI50 [9]: 4.29 µM
TGI [9]: 26.7 µM
GI50 [10]: 3.1 µM
TGI [10]: 16.1 µM
GI50 [11]: 1.79 µM
TGI [11]: 4.12 µM
GI50 [12]: 2.92 µM
TGI [12]: 20.5 µM
GI50 [13]: 3.38 µM
TGI [13]: 15.3 µM
GI50 [14]: 2.51 µM
TGI [14]: 8.96 µM
GI50 [15]: 5.48 µM
TGI [15]: 29.1 µM
GI50 [16]: 1.69 µM
TGI [16]: 3.53 µM
GI50 [17]: 2.2 µM
TGI [17]: 7.98 µM
GI50 [18]: 3.31 µM
TGI [18]: 19.7 µM
GI50 [19]: 2.78 µM
TGI [19]: 7.77 µM
GI50 [20]: 4.16 µM
TGI [20]: > 100 µM
GI50 [21]: 0.628 µM
TGI [21]: 2.17 µM
GI50 [22]: 1.75 µM
TGI [22]: 4.13 µM
GI50 [23]: 0.301 µM
TGI [23]: 1.22 µM
GI50 [24]: 1.33 µM
TGI [24]: 3.48 µM
GI50 [25]: 2.45 µM
TGI [25]: 13.1 µM
GI50 [26]: 2.1 µM
TGI [26]: 7.73 µM
GI50 [27]: 1.12 µM
TGI [27]: 4.84 µM
GI50 [28]: 2.42 µM
TGI [28]: 15.1 µM
GI50 [29]: 1.41 µM
TGI [29]: 3.1 µM
GI50 [30]: 2.17 µM
TGI [30]: 5.44 µM
GI50 [31]: 4.11 µM
TGI [31]: 28.9 µM
GI50 [32]: 3.69 µM
TGI [32]: 72.6 µM
GI50 [33]: 1.52 µM
TGI [33]: 7.92 µM
GI50 [34]: 1.15 µM
TGI [34]: 4.26 µM
GI50 [35]: 1.91 µM
TGI [35]: 5.35 µM
GI50 [36]: 2.57 µM
TGI [36]: 22.1 µM
GI50 [37]: 3.27 µM
TGI [37]: 15 µM
GI50 [38]: 1.43 µM
TGI [38]: 3.12 µM
GI50 [39]: 2.09 µM
TGI [39]: 9.56 µM
GI50 [40]: 1.87 µM
TGI [40]: 4.79 µM
GI50 [41]: 1.91 µM
TGI [41]: 21.1 µM
GI50 [42]: 0.373 µM
TGI [42]: 10.3 µM
GI50 [43]: 1.36 µM
TGI [43]: 3.4 µM
GI50 [44]: 2.45 µM
TGI [44]: 8.34 µM
GI50 [45]: 2.39 µM
TGI [45]: 5.17 µM
GI50 [46]: 2.25 µM
TGI [46]: 9.09 µM
GI50 [47]: 0.28 µM
TGI [47]: 1.06 µM
GI50 [48]: 1.51 µM
TGI [48]: 2.89 µM
GI50 [49]: 0.48 µM
TGI [49]: 1.9 µM
GI50 [50]: 2.16 µM
TGI [50]: 8.52 µM
GI50 [51]: 2.28 µM
TGI [51]: 5.15 µM
GI50 [52]: 1.49 µM
TGI [52]: 4.15 µM
GI50 [53]: 2.59 µM
TGI [53]: 7.79 µM
GI50 [54]: 1.65 µM
TGI [54]: 6.03 µM
GI50 [55]: 2.36 µM
TGI [55]: 9.03 µM
